Assay results published in PubChem BioAssay AID330 (DTP/NCI, 2004).
“And” between values parts separate entries of the source, which are not always exact repeats. Equal entries are not always repeated. Inconclusive results and toxic doses are left out. Rule for the calls: active = survival T/C of 150% or more; inactive = T/C below 125% in these data.

Tested on: P388 leukemia ip, CD2F1 mice, survival T/C
Assay: NCI In Vivo Anticancer Drug Screen. Data for tumor model P388 Leukemia (intraperitoneal) in CD2F1 (CDF1) mice
Settings: endpoint: median survival time, higher = longer survival
Outline: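 Mice carrying the transplanted tumor received test compound or vehicle. Survival was recorded in each group, and the value is the treated-group measurement divided by that of the vehicle-treated control group.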

[1] = dose: 50.0 mg/kg/injection, schedule: Q01DX009 (ip), vehicle: suspension in saline
[2] = dose: 60.0 mg/kg/injection, schedule: Q01DX005 (ip), vehicle: saline with Tween-80
[3] = dose: 120.0 mg/kg/injection, schedule: Q01DX005 (ip), vehicle: saline with Tween-80
[4] = dose: 240.0 mg/kg/injection, schedule: Q01DX005 (ip), vehicle: saline with Tween-80
[5] = dose: 50.0 mg/kg/injection, schedule: Q01DX005 (ip), vehicle: saline
[6] = dose: 100.0 mg/kg/injection, schedule: Q01DX005 (ip), vehicle: saline
[7] = dose: 200.0 mg/kg/injection, schedule: Q01DX005 (ip), vehicle: saline
[8] = dose: 50.0 mg/kg/injection, schedule: Q01DX005 (ip), vehicle: Klucel (hydroxypropylcellulose) (HPC)
[9] = dose: 100.0 mg/kg/injection, schedule: Q01DX005 (ip), vehicle: Klucel (hydroxypropylcellulose) (HPC)
[10] = dose: 12.5 mg/kg/injection, schedule: Q01DX009 (ip), vehicle: saline with Tween-80
[11] = dose: 50.0 mg/kg/injection, schedule: Q01DX009 (ip), vehicle: saline
[12] = dose: 100.0 mg/kg/injection, schedule: Q01DX009 (ip), vehicle: saline
[13] = dose: 200.0 mg/kg/injection, schedule: Q01DX009 (ip), vehicle: saline

Measured: T/C

CCCC[N+](CCCC)(CCCC)CCCC.O=C([O-])[O-].O=C([O-])[O-].[Co+3].[NH-]CC[NH-]
inactive: [1] 113 % of control and 123 % of control | dose: 100.0 mg/kg/injection, schedule: Q01DX009 (ip), vehicle: suspension in saline 120 % of control

O=C1Nc2ccccc2/C1=C/c1ccc(Cl)c(Cl)c1
inactive: dose: 6.25 mg/kg/injection, schedule: Q01DX009 (ip), vehicle: Klucel (hydroxypropylcellulose) (HPC) 96 % of control | dose: 12.5 mg/kg/injection, schedule: Q01DX009 (ip), vehicle: Klucel (hydroxypropylcellulose) (HPC) 95 % of control | dose: 25.0 mg/kg/injection, schedule: Q01DX009 (ip), vehicle: Klucel (hydroxypropylcellulose) (HPC) 92 % of control | dose: 100.0 mg/kg/injection, schedule: Q01DX009 (ip), vehicle: Klucel (hydroxypropylcellulose) (HPC) 86 % of control | dose: 200.0 mg/kg/injection, schedule: Q01DX009 (ip), vehicle: Klucel (hydroxypropylcellulose) (HPC) 90 % of control

Ic1cc2c(cc1C1CO1)OCO2 (stereo not drawn)
inactive: dose: 100.0 mg/kg/injection, schedule: Q01DX001 (ip), vehicle: Klucel (hydroxypropylcellulose) (HPC) 103 % of control | dose: 200.0 mg/kg/injection, schedule: Q01DX001 (ip), vehicle: Klucel (hydroxypropylcellulose) (HPC) 99 % of control | dose: 400.0 mg/kg/injection, schedule: Q01DX001 (ip), vehicle: Klucel (hydroxypropylcellulose) (HPC) 96 % of control

O=C(NO)/C(CC(=O)c1ccc(O)cc1)=N\O
inactive: [2] 104 % of control | [3] 101 % of control | [4] 105 % of control

[CH3][Ge]([c]1ccccc1)[c]1cccc2ccccc12.[CH3][Sn]([CH3])[c]1ccccc1
inactive: dose: 100.0 mg/kg/injection, schedule: Q04DX003 (ip), vehicle: saline 100 % of control | dose: 200.0 mg/kg/injection, schedule: Q04DX003 (ip), vehicle: saline 100 % of control | dose: 400.0 mg/kg/injection, schedule: Q04DX003 (ip), vehicle: saline 101 % of control

C/C(CCl)=N\NC1=NC(C)(CCl)P(=O)(NNc2ncccn2)S1 (stereo not drawn)
inactive: dose: 3.75 mg/kg/injection, schedule: Q01DX005 (ip), vehicle: saline 104 % of control | dose: 7.5 mg/kg/injection, schedule: Q01DX005 (ip), vehicle: saline 106 % of control | dose: 15.0 mg/kg/injection, schedule: Q01DX005 (ip), vehicle: saline 100 % of control and 113 % of control | dose: 30.0 mg/kg/injection, schedule: Q01DX005 (ip), vehicle: saline 106 % of control and 113 % of control and 97 % of control | dose: 60.0 mg/kg/injection, schedule: Q01DX005 (ip), vehicle: saline 105 % of control and 106 % of control and 107 % of control | dose: 120.0 mg/kg/injection, schedule: Q01DX005 (ip), vehicle: saline 101 % of control

NNc1ncnc2nc[nH]c12
inactive: dose: 6.25 mg/kg/injection, schedule: Q01DX009 (ip), vehicle: saline sonified 95 % of control | dose: 6.25 mg/kg/injection, schedule: Q01DX009 (ip), vehicle: saline 100 % of control | dose: 6.25 mg/kg/injection, schedule: Q01DX009 (ip), vehicle: suspension in saline 111 % of control | dose: 12.5 mg/kg/injection, schedule: Q01DX009 (ip), vehicle: saline sonified 100 % of control | dose: 12.5 mg/kg/injection, schedule: Q01DX009 (ip), vehicle: saline 100 % of control | dose: 12.5 mg/kg/injection, schedule: Q01DX009 (ip), vehicle: suspension in saline 100 % of control | dose: 25.0 mg/kg/injection, schedule: Q01DX009 (ip), vehicle: saline sonified 120 % of control | dose: 25.0 mg/kg/injection, schedule: Q01DX009 (ip), vehicle: saline 106 % of control | dose: 25.0 mg/kg/injection, schedule: Q01DX009 (ip), vehicle: suspension in saline 103 % of control | [1] 119 % of control | dose: 100.0 mg/kg/injection, schedule: Q04DX003 (ip), vehicle: saline sonified 109 % of control | dose: 200.0 mg/kg/injection, schedule: Q04DX003 (ip), vehicle: saline sonified 90 % of control

CCCCN(CCCC)CCN1C(=O)c2ccccc2S1(=O)=O
inactive: [5] 104 % of control | [6] 109 % of control | [7] 102 % of control

CCOC(=O)C(c1ccccc1)c1cccc(C(C(=O)OCC)c2ccccc2)n1 (stereo not drawn)
inactive: [2] 93 % of control | [3] 90 % of control | [4] 87 % of control

NC(=O)c1ccccc1OC(=O)Nc1ccc(F)cc1
inactive: dose: 15.0 mg/kg/injection, schedule: Q01DX005 (ip), vehicle: saline with Tween-80 101 % of control | dose: 30.0 mg/kg/injection, schedule: Q01DX005 (ip), vehicle: saline with Tween-80 97 % of control | [2] 99 % of control and 103 % of control | [3] 99 % of control

CCOC(=O)C1=C(C)N[C@@H](c2ccccc2[N+](=O)[O-])N[C@H]1c1ccccc1[N+](=O)[O-]
inactive: [8] 101 % of control | [9] 101 % of control | dose: 200.0 mg/kg/injection, schedule: Q01DX005 (ip), vehicle: Klucel (hydroxypropylcellulose) (HPC) 92 % of control

CCCCNc1ccc(C(=O)OC2CCN(C)CC2)c(Cl)c1
inactive: dose: 0.79 mg/kg/injection, schedule: Q01DX009 (ip), vehicle: saline with Tween-80 111 % of control and 119 % of control and 97 % of control | dose: 1.56 mg/kg/injection, schedule: Q01DX009 (ip), vehicle: saline with Tween-80 106 % of control and 119 % of control | [10] 107 % of control

CCOC(=O)c1cc2nc3ccccn3c(=O)c2cc1N
inactive: [10] 105 % of control and 93 % of control | dose: 25.0 mg/kg/injection, schedule: Q01DX009 (ip), vehicle: saline with Tween-80 87 % of control and 90 % of control | dose: 50.0 mg/kg/injection, schedule: Q01DX009 (ip), vehicle: saline with Tween-80 92 % of control | dose: 100.0 mg/kg/injection, schedule: Q01DX009 (ip), vehicle: saline with Tween-80 86 % of control and 96 % of control

CC(NCCNC(C)c1cccnc1)c1cccnc1 (stereo not drawn)
inactive: [5] 102 % of control | [6] 110 % of control | [7] 94 % of control

C/C(=N\O)c1cc(Br)cc([N+](=O)[O-])c1O
inactive: [8] 100 % of control | [9] 94 % of control

C[C@@H](O)c1nc(C(N)=O)cs1
inactive: [2] 104 % of control | [3] 109 % of control | [4] 106 % of control

O=C1CSC(=S)N1c1ccc(N=Nc2ccccc2)cc1
inactive: [11] 98 % of control | [12] 99 % of control | [13] 86 % of control

CCCCN1C(=O)CC(=O)N(c2ccccc2)C1=O
inactive: [11] 99 % of control | [12] 103 % of control | [13] 93 % of control

OC(CCl)COn1nnc2ccccc21 (stereo not drawn)
inactive: dose: 25.0 mg/kg/injection, schedule: Q01DX005 (ip), vehicle: saline with Tween-80 100 % of control | dose: 50.0 mg/kg/injection, schedule: Q01DX005 (ip), vehicle: saline with Tween-80 102 % of control | dose: 100.0 mg/kg/injection, schedule: Q01DX005 (ip), vehicle: saline with Tween-80 100 % of control | dose: 100.0 mg/kg/injection, schedule: Q04DX003 (ip), vehicle: saline with Tween-80 98 % of control | dose: 200.0 mg/kg/injection, schedule: Q04DX003 (ip), vehicle: saline with Tween-80 99 % of control | dose: 400.0 mg/kg/injection, schedule: Q04DX003 (ip), vehicle: saline with Tween-80 94 % of control

COc1ccc[nH]c1=O
inactive: [11] 102 % of control and 103 % of control | [12] 106 % of control and 109 % of control | [13] 100 % of control and 105 % of control | dose: 400.0 mg/kg/injection, schedule: Q01DX009 (ip), vehicle: saline 105 % of control and 112 % of control | dose: 600.0 mg/kg/injection, schedule: Q01DX009 (ip), vehicle: saline 106 % of control and 114 % of control

COC(=O)CCC(=O)Nc1c(C)cccc1C(C)C
inactive: [2] 105 % of control | [3] 99 % of control | [4] 99 % of control

CSc1ccc(C)cc1C(C)=O
inactive: dose: 50.0 mg/kg/injection, schedule: Q01DX005 (ip), vehicle: acetone 93 % of control | dose: 100.0 mg/kg/injection, schedule: Q01DX005 (ip), vehicle: acetone 99 % of control | dose: 200.0 mg/kg/injection, schedule: Q01DX005 (ip), vehicle: acetone 100 % of control

CCB1OCC(C2OC(=O)C3OB(CC)OC32)O1 (stereo not drawn)
inactive: dose: 50.0 mg/kg/injection, schedule: Q01DX005 (ip), vehicle: saline + Tween-80 + alcohol 101 % of control | dose: 100.0 mg/kg/injection, schedule: Q01DX005 (ip), vehicle: saline + Tween-80 + alcohol 101 % of control | dose: 200.0 mg/kg/injection, schedule: Q01DX005 (ip), vehicle: saline + Tween-80 + alcohol 95 % of control
